# According to US8759363B2, “Quinazoline-based T cell proliferation inhibitors” (Yissum Research Development Company of the Hebrew …, priority 2010, dated 2014):
# “Also recorded” adds a separate entry of the source. Read-outs that look alike come from different tables or passages of the source.
# Assays:
# [1] = tested on: PBMC depleted of CD3+ cells; test: Proliferation of PBMC depleted of CD3+ cells, BrdU; type: cell-based; settings: Homo sapiens, stimulated by ODN2006 or LPS, stated as similar to ~0.5 μM, read-out: IC50 for PBMCs depleted of CD3+ cells
# Method: Blood samples were taken from healthy donors and loaded on a Ficoll density gradient to purify the PBMC population. T cells were purified by human anti-CD3 using an autoMACS instrument (Miltenyi Biotec, Bergisch-Gladbach, Germany), according to the manufacturer's instructions. The identity of T cells was confirmed by flow cytometry, as they stained positive for CD3. Cells were stimulated with ConA (10 μg/ml), ODN2006 (0.5 μg/ml; Enzo Life Sciences), or LPS (50 μg/ml; Sigma-Aldrich, Steinheim, Germany), for 72 h in the presence of the inhibitor, and their proliferation was measured in the BrdU incorporation assay as will be later described.
# (§1) Proliferation was assessed by BrdU incorporation using a colorimetric ELISA kit (Roche, Germany). Subsequent to labeling with 10 μM BrdU, DNA was denatured and the cells were incubated with anti-BrdU-POD, prior to the addition of colorimetric substrate (TMB). The reaction product was quantified by measuring absorbance at 450 nm in an ELISA plate reader (ELx800 BIO-TEK Instruments Inc.).
# PBMC consist of a mixture of mononucleated cells, mostly T cells. To identify the cell type that was inhibited by 2, we first purified T cells from PBMC with an autoMACS apparatus (Miltenyi Biotec), using anti-CD3 antibodies. We were now able to compare three cell populations: total PBMC, CD3+ cells purified from PBMC, and PBMC that had been depleted of CD3+ cells. […]
# [2] = tested on: IL-2 secretion by Jurkat and PBMC cells; test: IL-2 secretion after stimulation, ELISA; type: cell-based, human; settings: anti-TCR, anti-CD28, PMA, ionomycin, ConA stimulation; up to 5 μM inhibitor
# Method: Jurkat or PBMC cells were treated for 12 h with 1 μM, 0.5 μM or no inhibitor. Cells (1×10^6) were plated in 24-well plates (Nunc) and stimulated by C305 (dilution 1:500), anti-CD28 (1:100), PMA (50 ng/ml) or ionomycin (1 μM) for 12 h. Alternately, cells were stimulated for 24, 48 and 72 h in MLR. After stimulation cells were centrifuged at 130×g for 5 minutes at room temperature.
# Supernatants were collected and IL-2 was assayed using the IL-2 ELISA kit (BioSource International USA, KH0022) according to the manufacturer's instructions. Absorbance was read at 450 nm in an ELISA plate reader (ELx800 BIO-TEK Instruments Inc.).
# Jurkat cells, which originate from leukemia, divide with no need of exogenous IL-2 stimulation since they produce their own, whereas PBMC proliferation requires exogenous IL-2 for growth. As expected, IL-2 secretion levels were lower in cells isolated from the blood (PBMC) than in Jurkat cells (FIGS. 5A-B). We analyzed the effect of 2 on IL-2 secretion in both Jurkat (FIG. 5A) and PBMC (FIG. 5B) cells, using a variety of T cell stimuli. Cells were stimulated with an antibody to the TCR alone or in combination with anti-CD28 or phorbol 12-myristate 13-acetate (PMA). In order to bypass the TCR, we also stimulated the cells with a combination of ionomycin, PMA and anti-CD28 (FIG. 5A). […]
# TEA (stimulated) cells = test: MLR with resting control cells, stimulated TEA cells; type: cell-based, mouse; settings: 0.5 μM, 72 h MLR with IL-7; no inhibitor 3850
# Excerpt: The aim of this test was to determine whether 2 affects only the proliferating cells or there is a general mechanism affecting all cell numbers. For this purpose we mixed 3 cell types: […]: BALB/c, 2C and OT1; […]: CB6F1, TEA and OT2. The OT1 and OT2 are splenocytes that were isolated from OT1 and OT2 mice (Jackson Laboratories, Bar Harbor, Me.),
# Thus, the ability to monitor the fate of proliferation and resting cells by FACS was enabled due to the use of the MLR described above for CD4+ and CD8+ and the addition of OT2 and OT1 splenocytes, respectively.
# Proliferating cells often secrete cytokines that induce survival of neighbouring cells; since the proliferation was expected to be inhibited we added 50 ng/ml of IL-7. This concentration is sufficient to keep the cells alive, but not to induce proliferation.
# The number of TEA and OT2 cells that were treated with 0.5 μM 2 was 1452 and 826, respectively, while the number of 2C and OT1 cells that were treated with 0.5 μM 21 was 3003 and 903, respectively. This is depicted as a bar-graph in FIG. 9C.
# A375 = A375 proliferation, BrdU uptake; type: cell-based; settings: Homo sapiens, A-375
# Method: Cells were depleted of fetal calf serum (FCS) for 12 hours. They were then stimulated to proliferate by addition of ConA (10 μg/ml) for PBMC from healthy individuals and for Jurkat cells, FCS (10%) for HEK293 and A375 cells, PDGF (30 ng/ml) for NIH 3T3 cells, and EGF (30 ng/ml) for MDA-MB-231, Cells (1×10^5) were cultured in 96-well plates for 3 days in the presence or absence of inhibitors at the concentrations specified in the text. Each condition was tested in duplicate wells.
# as §1
# To characterize the mode of action of 2 (S101) in more detail, we first examined whether 2 inhibits non-hematopoietic cell lines. We studied the effect of 2 on the growth of four cell lines: NIH 3T3 (mouse embryonic fibroblasts), A-431 (human vulval carcinoma cells), MDA-MB-468 (human breast carcinoma cells), and PANC-1 (human pancreatic carcinoma cells) (FIGS. 1A-B). We also tested the inhibitors on human keratinocytes. […]
smiles,measurement,setting,value
"COc1cc(-c2nc(Nc3ccc(C)cc3)c3ccccc3n2)cc(OC)c1OC [Compound 2, N-p-tolyl-2-(3,4,5-trimethoxyphenyl)quinazolin-4-amine]",IC50,[1],~500 nM
same,effect on IL-2 levels in the medium,[2],no effect; also recorded: did not affect
same,number of TEA (stimulated) cells,TEA (stimulated) cells,1452
same,IC50,"A375; A375, non-stimulated, read-out: IC50 of non-stimulated cells",~800 nM
same,IC50,"A375; A375, serum (FCS 10%) activated, read-out: IC50 of stimulated cells",> 10000 nM
